# Experimental data: US20060052326A1, “Werner's syndrome helicase as a target for anti -HIV/AIDS therapy” (priority 2004, published 2006)
# B1: TatK28A/K50A (protein)
# chain: MEPVDPRLEPWKHPGSQPKTACTNCYCAKCCFHCQVCFITKALGISYGRAKRRQRRRAHQNSQTHQASLSKQPTSQPRGDPTGPKE
# Columns and labels:
# Assay type in all cases: cell-based
# [1] = system: HIV-1 LTR; experiment: HIV-1 LTR-luciferase / tk-renilla normalized reporter assay in HeLa cells; settings: for Tat-activated HIV-1 LTR luciferase activity with or without WRNK577M: highest concentration of WRNK577M versus Tat alone
# Experimental: (§1) Therefore, we co-transfected immortalized WRN^-I- fibroblasts with a tk-renilla luciferase reporter plasmid (which produces red luminescence as a result of renilla luciferase expression driven by the Herpes Simplex Virus thymidine kinase (tk) minimal gene promoter)(0.5 μg) and an HIV-1 LTR-luciferase reporter construct (which produces green luminescence as a result of firefly luciferase expression driven by the HIV-1 LTR) (0.5 μg), and increasing amounts of RSV-HIV-1 Tat or RSV-HIV-1 TatK28A/K50A (0.15, 0.25, 0.5 μg) in the absence or presence of the trans-dominant negative CMV-WRNK577M mutant (0.5, 1.0 μg). The CMV-WRNK577M trans-dominant-negative helicase-defective mutant was co-expressed in certain experiments to inhibit Tat-activated HIV-1 LTR transcription and endogenous WRN functions in HeLa cells (Bai Y et al., Hum. Genet. 113:337-347). Samples were normalized to yield approximately equivalent renilla-luciferase expression to control for transfection efficiencies and any differences in overall transcription levels between WRN^-I- fibroblasts and HeLa cells. Normalized extracts were then compared to determine basal-level and Tat-activated HIV-1 LTR-luciferase transcription.
# [2] = system: HIV-1 LTR^ΔκB; experiment: HIV-1 LTR^ΔκB-luciferase mutant reporter assay in co-transfected HeLa cells; settings: for transcription from the HIV-1 LTR^ΔκB-luciferase construct (in words): absence of Tat
# Experimental: To determine whether the TAR-RNA stem-loop secondary structure is sufficient to support WRN-mediated LTR trans-activation, HeLa cells were co-transfected with an HIV-1 LTR^ΔκB luciferase mutant reporter construct, lacking upstream NF-κB-responsive enhancer sequences (transcription from this construct is principally regulated at the level of elongation by TAR-RNA), RSV-HIV-1 Tat, or increasing amounts of CMV-WRN or CMV-WRNK577M (0.25, 0.5, 1.0 μg). Luciferase assays were performed as described using equivalent amounts of total cellular proteins.
# The next experiment was undertaken to determine whether interactions with the Tat protein influence WRN's ability to trans-activate the HIV-1 LTR. […] All experiments were performed in duplicate or triplicate and error bars representative of standard deviations are shown in FIG. 4C.
# [3] = system: HIV-1 LTR^ΔNFκB/ΔTAR; experiment: HIV-1 LTR^ΔNFκB/ΔTAR-luciferase double-mutant reporter assay in HeLa cells
# Excerpt: HeLa cells were co-transfected as in A with a double-mutant, HIV-1 LTR^ΔNFκB/ΔTAR-luciferase reporter plasmid, deleted for κB-responsive elements and TAR-RNA sequences, RSV-HIV-1 Tat, CMV-WRN, or CMV-BLM.
# [4] = system: HIV-1 LTR; experiment: HIV-1 LTR-luciferase / tk-renilla normalized reporter assay in immortalized WRN^-I- fibroblasts; settings: highest concentration of RSV-HIV-1 Tat
# Experimental: In order to determine whether the WRN helicase is an essential cofactor for HIV-1 transcription and virus replication, basal and Tat-activated LTR-driven transcription were measured in WRN^-I-fibroblasts. These fibroblasts were obtained from Werner's syndrome patients and lack a functional WRN helicase protein (Moser M J et al., Nucleic Acids Res. 28:648-654).
# as §1, with “Samples were normalized to yield approximately equivalent renilla-luciferase expression to control for transfection efficiencies and any differences in overall transcription levels between WRN^-I- fibroblasts and HeLa cells. Normalized extracts were then compared to determine basal-level and Tat-activated HIV-1 LTR-luciferase transcription.” left out
# [5] = system: HIV-1 LTR; experiment: HIV-1 LTR-luciferase reporter assay in Jurkat E6.1 T-cells; settings: Jurkat E6.1 lymphocytes
# Experimental: To determine the influence of the WRN helicase upon HIV-1 LTR transcriptional activation in CD4^+ lymphocytes, Jurkat E6.1 T-cells were co-transfected with HIV-1 LTR-luciferase (0.5 μg), RSV-HIV-1 Tat (0.5 μg), and increasing amounts of CMV-WRN or CMV-WRNK577M, which expresses a trans-dominant negative helicase-defective mutant (0.25, 0.5, 1.0 μg). Following transfection, the cells were lysed by repeated freeze-thawing and luciferase assays were performed, in duplicate, using equivalent amounts of total cellular proteins.
# [6] = system: HIV-1 LTR; experiment: HIV-1 LTR-luciferase reporter assay in co-transfected HeLa cells; settings: for effect on basal HIV-1 LTR transcriptional activity (in words): absence of Tat
# Experimental: To determine whether the WRN or BLM helicases influence HIV-1 transcriptional activity and viral replication, HeLa cells were co-transfected with an HIV-1 LTR-luciferase reporter plasmid (0.5 μg), RSV-HIV-1 Tat (0.5 μg), and increasing amounts of CMV-WRN or CMV-BLM expression constructs (0.25, 0.5, 1.0 μg). Following transfection, the cells were lysed by repeated freeze-thawing and luciferase assays were performed using equivalent amounts of total cellular proteins.
# Next, an assay was performed to determine whether WRN-associated helicase activity is required for WRN-mediated trans-activation from the HIV-1 LTR. HeLa cells were co-transfected as in A with the HIV-1 LTR-luciferase reporter plasmid (0.5 μg), RSV-HIV-1 Tat (0.5 μg), or increasing amounts of CMV-WRN and CMV-WRNK577M (a trans-dominant negative helicase-defective mutant) (0.25, 0.5, 1.0 μg) in the absence of HIV-1 Tat expression. Results shown in FIG. 3B are averages from duplicate assays and error bars representing standard deviations between samples are provided.
# [7] = system: HIV-1IIIB-infected H9 lymphocytes; experiment: Intracellular p24^Gag immunoblotting in transfected HIV-1IIIB-infected H9 lymphocytes; settings: PHA (10 ng/ml) and hIL-2 (50 U/ml) stimulated, over-expression
# Experimental: The influence of over-expressing wild-type WRN, or trans-dominant-negative WRNK577M, proteins upon HIV-1 replication and the production of intracellular viral structural components was tested in HIV-infected H9 lymphocytes that were stimulated with PHA (10 ng/ml) and human IL-2 (50 U/ml) . HIV-1IIIB-infected H9 lymphocytes were transfected with increasing amounts of CMV-WRN, CMV-WRNK577M, or CMV-green fluorescent protein (GFP) negative control (1.0, 3.0 μg) and then stimulated with PHA (10 ng/ml) and hIL-2 (50 U/ml) to induce HIV-1 replication. The HIV-1 p24^Gag major capsid and cellular actin proteins were detected by immuno-blotting using appropriate primary antibodies. Protein expression was quantified using a densitometer and is represented graphically below immunoblotting results shown in FIG. 7A.
# [8] = system: H9HIV-1IIIB lymphocytes; experiment: Immunofluorescence-microscopy of p24^Gag in transfected HIV-1-infected H9 lymphocytes; settings: PHA/hIL-2 stimulated, Myc-epitope-tagged protein over-expression
# Experimental: Immunofluorescence-microscopy was next performed to directly assess whether over-expression of Myc-epitope-tagged WRN or the trans-dominant-negative WRNK577M mutant influence HIV-replication and production of p24^Gag in infected H9HIV-1IIIB lymphocytes. HIV-1-infected H9 lymphocytes were transfected with increasing amounts of CMV-WRN, CMV-WRNK577M, or CβF empty vector (0.12, 0.25 μg) and were stimulated with PHA and hIL-2 as described above. Immunofluorescence-microscopy was performed to determine the influence of WRN or WRNK577M over-expression upon production of HIV-1 p24^Gag and viral replication. Expression of Myc-epitope-tagged WRN and WRNK577M proteins in transfected H9 cells was detected using a rabbit anti-Myc polyclonal antibody (Moser M J et al., Nucleic Acids Res. 28:648-654). Production of intracellular HIV-1 p24^Gag capsid protein was detected using a monoclonal anti-HIV-1 p24^Gag antibody. DAPI-staining was performed to visualize nuclei.
# [9] = highest concentration of RSV-HIV-1 Tat
# [10] = co-expression with Tat, increasing amounts
Molecule,Tat-activated HIV-1 LTR luciferase activity with or without WRNK577M [1],transcriptional activation of reporter deleted for κB-responsive elements and TAR-RNA [3],transcription from the HIV-1 LTR^ΔκB-luciferase construct (in words) [2],effect on basal HIV-1 LTR transcriptional activity (in words) [6],intracellular production of p24^Gag capsid protein / HIV-1 replication (immunoblot) [7],intracellular p24^Gag (immunofluorescence) [8],also measured
"Tat: HIV-1 viral trans-activator protein, 81-101 amino acid residues, expressed from RSV construct","14,518,374 RLUs",completely abrogated transcriptional activation,–,–,–,–,"Tat trans-activation of HIV-1 LTR [1, 9]: 22 fold; Tat-activated HIV-1 LTR luciferase activity [1, 9]: 14,834,412 RLUs; Tat-mediated trans-activation from the HIV-1 LTR^ΔκB-luciferase reporter [2]: 6.5 fold; Tat trans-activation of HIV-1 LTR [4]: 0 fold; Tat-activated HIV-1 LTR luciferase activity [4]: 340 RLUs; transcriptional activation from the HIV-1 LTR ([5]; Tat alone): approximately 250 fold"
BLM helicase: BLM DNA-helicase expressed from CMV-BLM construct,–,–,no significant influence,does not affect basal HIV-1 LTR transcriptional activity,–,–,effect on Tat-mediated transcriptional activation (in words) ([6]; co-expression with Tat): does not significantly influence Tat-mediated transcriptional activation
"WRN helicase: wild-type Werner's syndrome helicase protein, 1432 amino acid residues, expressed from CMV construct",–,completely abrogated transcriptional activation,to a level approximately one-half that observed for Tat,transcriptionally activates the HIV-1 LTR in a dose-dependent manner,significantly higher intracellular production of the p24^Gag major viral capsid protein,increased intracellular p24^Gag,"Tat-mediated LTR trans-activation on co-expression of helicase ([6]; co-expression with Tat, increasing amounts of construct): ~60 fold; transcriptional activation from the HIV-1 LTR ([6]; wild-type LTR, factor expressed alone): approx. 10 fold; trans-activation by Tat on co-expression of helicase [5, 10]: approximately 395 fold"
WRNK577M,"5,457,345 RLUs",–,did not significantly promote transcription,represses basal transcription to levels below base-line,represses production of the p24^Gag major capsid protein,markedly reduced levels of p24^Gag,"effect on Tat's transcriptional activation from the HIV-1 LTR (in words) [5, 10]: repressed nearly one-half of Tat's transcriptional activation"
B1,–,–,–,–,–,–,effect on WRN-mediated trans-activation from the HIV-1 TAR-RNA ([2]; co-expression with CMV-WRN): inhibited WRN-mediated trans-activation
